In ChEMBL document CHEMBL4138123, “Design, synthesis and biological evaluation of novel pyrazolochalcones as potential modulators of PI3K/Akt/mTOR pathway and inducers of apoptosis in breast cancer cells” (Eur J Med Chem, 2017):

Experiments:
Format in all cases: functional
[1] = tested on: T47D; experiment: Cytotoxicity against human T47D cells assessed as cell growth at 1 uM after 48 hrs by sulforhodamine B assay relative to control; details: read-out: Activity
[2] = tested on: NCI-H460; experiment: Cytotoxicity against human NCI-H460 cells assessed as cell growth at 10 uM after 48 hrs by sulforhodamine B assay relative to control; details: NCI-H460, 48 h, read-out: Activity
[3] = tested on: A498; experiment: Cytotoxicity against human A498 cells assessed as growth inhibition after 48 hrs by sulforhodamine B assay; details: A498, 48 h
[4] = tested on: NCI-H226; experiment: Cytotoxicity against human NCI-H226 cells assessed as cell growth at 0.01 uM after 48 hrs by sulforhodamine B assay relative to control; details: NCI-H226, 48 h, read-out: Activity
[5] = tested on: Hs-578T; experiment: Cytotoxicity against human Hs 578T cells assessed as cell growth at 1 uM after 48 hrs by sulforhodamine B assay relative to control; details: read-out: Activity
[6] = tested on: MCF7; experiment: Cytotoxicity against human MCF7 cells assessed as cell growth at 0.1 uM after 48 hrs by sulforhodamine B assay relative to control; details: MCF7, 48 h, read-out: Activity
[7] = tested on: SR; experiment: Cytotoxicity against human SR cells assessed as cell growth at 1 uM after 48 hrs by sulforhodamine B assay relative to control; details: read-out: Activity
[8] = tested on: Malme-3M; experiment: Cytotoxicity against human MALME-3M cells assessed as cell growth at 0.1 uM after 48 hrs by sulforhodamine B assay relative to control; details: read-out: Activity
[9] = tested on: KM12; experiment: Cytotoxicity against human KM12 cells assessed as cell growth at 0.1 uM after 48 hrs by sulforhodamine B assay relative to control; details: KM12, 48 h, read-out: Activity
[10] = tested on: SN12C; experiment: Cytotoxicity against human SN12C cells assessed as cell growth at 1 uM after 48 hrs by sulforhodamine B assay relative to control; details: read-out: Activity
[11] = tested on: OVCAR-8; experiment: Cytotoxicity against human OVCAR8 cells assessed as cell growth at 0.01 uM after 48 hrs by sulforhodamine B assay relative to control; details: OVCAR-8, 48 h, read-out: Activity
[12] = tested on: MDA-MB-435; experiment: Cytotoxicity against human MDA-MB-435 cells assessed as cell growth at 100 uM after 48 hrs by sulforhodamine B assay relative to control; details: MDA-MB-435, 48 h, read-out: Activity
[13] = tested on: HL-60(TB); experiment: Cytotoxicity against human HL-60(TB) cells assessed as cell growth at 0.01 uM after 48 hrs by sulforhodamine B assay relative to control; details: HL-60, 48 h, read-out: Activity
[14] = tested on: SW-620; experiment: Cytotoxicity against human SW620 cells assessed as cell growth at 100 uM after 48 hrs by sulforhodamine B assay relative to control; details: SW-620, 48 h, read-out: Activity
[15] = tested on: MDA-MB-435; experiment: Cytotoxicity against human MDA-MB-435 cells assessed as growth inhibition after 48 hrs by sulforhodamine B assay; details: MDA-MB-435, 48 h
[16] = tested on: MDA-MB-435; experiment: Cytotoxicity against human MDA-MB-435 cells assessed as cell growth at 10 uM after 48 hrs by sulforhodamine B assay relative to control; details: MDA-MB-435, 48 h, read-out: Activity
[17] = tested on: MOLT-4; experiment: Cytotoxicity against human MOLT4 cells assessed as cell growth at 10 uM after 48 hrs by sulforhodamine B assay relative to control; details: MOLT-4, 48 h, read-out: Activity
[18] = tested on: IGROV-1; experiment: Cytotoxicity against human IGROV1 cells assessed as cell growth at 10 uM after 48 hrs by sulforhodamine B assay relative to control; details: IGROV-1, 48 h, read-out: Activity
[19] = tested on: HOP-62; experiment: Cytotoxicity against human HOP62 cells assessed as cell growth at 0.1 uM after 48 hrs by sulforhodamine B assay relative to control; details: HOP-62, 48 h, read-out: Activity
[20] = tested on: SR; experiment: Cytotoxicity against human SR cells assessed as cell growth at 100 uM after 48 hrs by sulforhodamine B assay relative to control; details: read-out: Activity
[21] = tested on: KM12; experiment: Cytotoxicity against human KM12 cells assessed as cell growth at 1 uM after 48 hrs by sulforhodamine B assay relative to control; details: KM12, 48 h, read-out: Activity
[22] = tested on: COLO 205; experiment: Cytotoxicity against human COLO205 cells assessed as growth inhibition after 48 hrs by sulforhodamine B assay; details: COLO 205, 48 h
[23] = tested on: K562; experiment: Cytotoxicity against human K562 cells assessed as growth inhibition after 48 hrs by sulforhodamine B assay; details: K562, 48 h
[24] = tested on: PC-3; experiment: Cytotoxicity against human PC3 cells assessed as growth inhibition after 48 hrs by sulforhodamine B assay; details: PC-3, 48 h
[25] = tested on: OVCAR-5; experiment: Cytotoxicity against human OVCAR5 cells assessed as growth inhibition after 48 hrs by sulforhodamine B assay; details: OVCAR-5, 48 h
[26] = tested on: OVCAR-3; experiment: Cytotoxicity against human OVCAR3 cells assessed as cell growth at 0.1 uM after 48 hrs by sulforhodamine B assay relative to control; details: OVCAR-3, 48 h, read-out: Activity
[27] = tested on: NCI/ADR-RES; experiment: Cytotoxicity against human NCI/ADR-RES cells assessed as cell growth at 1 uM after 48 hrs by sulforhodamine B assay relative to control; details: read-out: Activity
[28] = tested on: CCRF-CEM; experiment: Cytotoxicity against human CCRF-CEM cells assessed as cell growth at 0.1 uM after 48 hrs by sulforhodamine B assay relative to control; details: read-out: Activity
[29] = tested on: IGROV-1; experiment: Cytotoxicity against human IGROV1 cells assessed as growth inhibition after 48 hrs by sulforhodamine B assay; details: IGROV-1, 48 h
[30] = tested on: MCF7; experiment: Cytotoxicity against human MCF7 cells assessed as cell growth at 0.01 uM after 48 hrs by sulforhodamine B assay relative to control; details: MCF7, 48 h, read-out: Activity
[31] = tested on: ACHN; experiment: Cytotoxicity against human ACHN cells assessed as cell growth at 0.1 uM after 48 hrs by sulforhodamine B assay relative to control; details: read-out: Activity
[32] = tested on: NCI/ADR-RES; experiment: Cytotoxicity against human NCI/ADR-RES cells assessed as growth inhibition after 48 hrs by sulforhodamine B assay
[33] = tested on: SW-620; experiment: Cytotoxicity against human SW620 cells assessed as cell growth at 0.01 uM after 48 hrs by sulforhodamine B assay relative to control; details: SW-620, 48 h, read-out: Activity
[34] = tested on: OVCAR-8; experiment: Cytotoxicity against human OVCAR8 cells assessed as cell growth at 1 uM after 48 hrs by sulforhodamine B assay relative to control; details: OVCAR-8, 48 h, read-out: Activity
[35] = tested on: SK-OV-3; experiment: Cytotoxicity against human SKOV3 cells assessed as growth inhibition after 48 hrs by sulforhodamine B assay; details: SK-OV-3, 48 h
[36] = tested on: SF-539; experiment: Cytotoxicity against human SF539 cells assessed as cell growth at 1 uM after 48 hrs by sulforhodamine B assay relative to control; details: SF-539, 48 h, read-out: Activity
[37] = tested on: HOP-62; experiment: Cytotoxicity against human HOP62 cells assessed as cell growth at 10 uM after 48 hrs by sulforhodamine B assay relative to control; details: HOP-62, 48 h, read-out: Activity

## COc1cc(-c2cc(/C=C/C(=O)c3ccc(Cl)c(Cl)c3)[nH]n2)cc(OC)c1OC
[1]
  growth at 1 µM: 62%
[2]
  growth at 10 µM: 31%
[3]
  LC50: > 100 µM
  TGI: 43 µM
[4]
  growth at 0.01 µM: 103%
[5]
  growth at 1 µM: 104%
[6]
  growth at 0.1 µM: 105%
[7]
  growth at 1 µM: 23%
[8]
  growth at 0.1 µM: 95%
[9]
  growth at 0.1 µM: 93%
[10]
  growth at 1 µM: 91%
[11]
  growth at 0.01 µM: 94%
[12]
  growth at 100 µM: 6%
[13]
  growth at 0.01 µM: 105%
[14]
  growth at 100 µM: -5%
[15]
  LC50: > 100 µM
  TGI: > 100 µM
[16]
  growth at 10 µM: 37%
[17]
  growth at 10 µM: 24%
[18]
  growth at 10 µM: 75%
[19]
  growth at 0.1 µM: 101%
[20]
  growth at 100 µM: -51%
[21]
  growth at 1 µM: 85%
[22]
  LC50: > 100 µM
  TGI: 15.8 µM
[23]
  LC50 (concentration killing 50% of cells): > 100 µM
  TGI: 64.4 µM
[24]
  LC50: > 100 µM
  TGI: > 100 µM
[25]
  LC50: > 100 µM
  TGI: > 100 µM
[26]
  growth at 0.1 µM: 105%
[27]
  growth at 1 µM: 92%
[28]
  growth at 0.1 µM: 98%
[29]
  LC50: > 100 µM
  TGI: > 100 µM
[30]
  growth at 0.01 µM: 105%
[31]
  growth at 0.1 µM: 105%
[32]
  LC50: > 100 µM
  TGI: > 100 µM
[33]
  growth at 0.01 µM: 98%
[34]
  growth at 1 µM: 88%
[35]
  LC50: 62.5 µM
  TGI: 18.8 µM
[36]
  growth at 1 µM: 88%
[37]
  growth at 10 µM: -9%

## COc1cc(-c2cc(/C=C/C(=O)c3ccc(N)cc3)[nH]n2)cc(OC)c1OC
[1]
  growth at 1 µM: 66%
[2]
  growth at 10 µM: -32%
[3]
  GI50: 1.64 µM
  LC50: 13.4 µM
  TGI: 4.33 µM
[4]
  growth at 0.01 µM: 92%
[5]
  growth at 1 µM: 87%
[6]
  growth at 0.1 µM: 91%
[7]
  growth at 1 µM: 14%
[8]
  growth at 0.1 µM: 102%
[9]
  growth at 0.1 µM: 98%
[10]
  growth at 1 µM: 85%
[11]
  growth at 0.01 µM: 100%
[12]
  growth at 100 µM: -85%
[13]
  growth at 0.01 µM: 99%
[14]
  growth at 100 µM: -40%
[15]
  GI50: 1.66 µM
  LC50: 6.2 µM
  TGI: 3.21 µM
[16]
  growth at 10 µM: -86%
[17]
  growth at 10 µM: -5%
[18]
  growth at 10 µM: 1%
[19]
  growth at 0.1 µM: 92%
[20]
  growth at 100 µM: -13%
[21]
  growth at 1 µM: 57%
[22]
  GI50: 1.74 µM
  LC50: 6.42 µM
  TGI: 3.34 µM
[23]
  GI50: 0.72 µM
  LC50 (concentration killing 50% of cells): > 100 µM
  TGI: 23.6 µM
[24]
  GI50: 2.21 µM
  LC50: > 100 µM
  TGI: 10.4 µM
[25]
  GI50: 1.78 µM
  LC50: 7.91 µM
  TGI: 3.75 µM
[26]
  growth at 0.1 µM: 110%
[27]
  growth at 1 µM: 98%
[28]
  growth at 0.1 µM: 91%
[29]
  GI50: 3.2 µM
  LC50: > 100 µM
  TGI: 10.5 µM
[30]
  growth at 0.01 µM: 89%
[31]
  growth at 0.1 µM: 97%
[32]
  GI50: 3.8 µM
  LC50: > 100 µM
  TGI: 65.8 µM
[33]
  growth at 0.01 µM: 95%
[34]
  growth at 1 µM: 81%
[35]
  GI50: 2.99 µM
  LC50: 28.9 µM
  TGI: 8.32 µM
[36]
  growth at 1 µM: 69%
[37]
  growth at 10 µM: -59%

## COc1cc(C(=O)/C=C/c2cc(-c3cc(OC)c(OC)c(OC)c3)n[nH]2)cc(OC)c1OC
[1]
  growth at 1 µM: 57%
[2]
  growth at 10 µM: -51%
[3]
  LC50: 8.02 µM
  TGI: 3.59 µM
[4]
  growth at 0.01 µM: 99%
[5]
  growth at 1 µM: 80%
[6]
  growth at 0.1 µM: 95%
[7]
  growth at 1 µM: 22%
[8]
  growth at 0.1 µM: 101%
[9]
  growth at 0.1 µM: 103%
[10]
  growth at 1 µM: 78%
[11]
  growth at 0.01 µM: 100%
[12]
  growth at 100 µM: -83%
[13]
  growth at 0.01 µM: 112%
[14]
  growth at 100 µM: -95%
[15]
  LC50: 5.82 µM
  TGI: 2.95 µM
[16]
  growth at 10 µM: -90%
[17]
  growth at 10 µM: -4%
[18]
  growth at 10 µM: 1%
[19]
  growth at 0.1 µM: 94%
[20]
  growth at 100 µM: 7%
[21]
  growth at 1 µM: 79%
[22]
  LC50: 5.59 µM
  TGI: 3.13 µM
[23]
  LC50 (concentration killing 50% of cells): > 100 µM
  TGI: > 100 µM
[24]
  LC50: 7.36 µM
  TGI: 3.29 µM
[25]
  LC50: 5.92 µM
  TGI: 3.12 µM
[26]
  growth at 0.1 µM: 105%
[27]
  growth at 1 µM: 95%
[28]
  growth at 0.1 µM: 94%
[29]
  LC50: 33.1 µM
  TGI: 10.2 µM
[30]
  growth at 0.01 µM: 95%
[31]
  growth at 0.1 µM: 100%
[32]
  LC50: > 100 µM
  TGI: 21.4 µM
[33]
  growth at 0.01 µM: 96%
[34]
  growth at 1 µM: 81%
[35]
  LC50: 33.4 µM
  TGI: 11.1 µM
[36]
  growth at 1 µM: 66%
[37]
  growth at 10 µM: -91%
